According to PubChem BioAssay AID1259407 (Chemical Carcinogenesis Research Information System (CCRIS), 2018):
The source made the active and inactive calls. How the calls were made is not given here.

System: CCRIS mutagenicity, Ames/micronucleus/aberration tests
Assay: CCRIS mutagenicity studies

## COC(=O)Nc1nc2ccccc2[nH]1
Test System: AMES SALMONELLA TYPHIMURIUM, Strain/Indicator: TA100, Metabolic Activation: RAT, LIVER, S-9, PHENOBARBITAL AND BETA-NAPHTHOFLAVONE, Method: STANDARD PLATE
  mutagenic call: inactive; negative
Test System: AMES SALMONELLA TYPHIMURIUM, Strain/Indicator: TA100, Metabolic Activation: RAT, LIVER, S-9, PHENOBARBITONE, Method: PREINCUBATION
  mutagenic call: inactive; negative
Test System: AMES SALMONELLA TYPHIMURIUM, Strain/Indicator: TA100, Metabolic Activation: S-9, Method: STANDARD PLATE
  mutagenic call: inactive; negative
Test System: AMES SALMONELLA TYPHIMURIUM, Strain/Indicator: TA102, Metabolic Activation: NONE, Method: PREINCUBATION
  mutagenic call: inactive; negative
Test System: AMES SALMONELLA TYPHIMURIUM, Strain/Indicator: TA102, Metabolic Activation: NONE, Method: STANDARD PLATE
  mutagenic call: inactive; negative
Test System: AMES SALMONELLA TYPHIMURIUM, Strain/Indicator: TA102, Metabolic Activation: RAT, LIVER, S-9, PHENOBARBITAL AND BETA-NAPHTHOFLAVONE, Method: PREINCUBATION
  mutagenic call: inactive; negative
Test System: AMES SALMONELLA TYPHIMURIUM, Strain/Indicator: TA102, Metabolic Activation: RAT, LIVER, S-9, PHENOBARBITAL AND BETA-NAPHTHOFLAVONE, Method: STANDARD PLATE
  mutagenic call: inactive; negative
Test System: AMES SALMONELLA TYPHIMURIUM, Strain/Indicator: TA1535, Metabolic Activation: HAMSTER, LIVER, S-9, AROCLOR 1254 (10%), Method: PREINCUBATION
  mutagenic call: inactive; negative
Test System: AMES SALMONELLA TYPHIMURIUM, Strain/Indicator: TA1535, Metabolic Activation: NONE, Method: PREINCUBATION
  mutagenic call: inactive; negative
Test System: AMES SALMONELLA TYPHIMURIUM, Strain/Indicator: TA1535, Metabolic Activation: PLANT, HOMOGENATE, S-14, Method: STANDARD PLATE
  mutagenic call: inactive; negative
Test System: AMES SALMONELLA TYPHIMURIUM, Strain/Indicator: TA1535, Metabolic Activation: RAT, LIVER, S-9, AROCLOR 1254 (10%), Method: PREINCUBATION
  mutagenic call: inactive; negative
Test System: AMES SALMONELLA TYPHIMURIUM, Strain/Indicator: TA1535, Metabolic Activation: RAT, LIVER, S-9, AROCLOR 1254, Method: STANDARD PLATE
  mutagenic call: inactive; negative
Test System: AMES SALMONELLA TYPHIMURIUM, Strain/Indicator: TA1535, Metabolic Activation: RAT, LIVER, S-9, PHENOBARBITAL AND BETA-NAPHTHOFLAVONE, Method: PREINCUBATION
  mutagenic call: inactive; negative
Test System: AMES SALMONELLA TYPHIMURIUM, Strain/Indicator: TA1535, Metabolic Activation: RAT, LIVER, S-9, PHENOBARBITAL AND BETA-NAPHTHOFLAVONE, Method: STANDARD PLATE
  mutagenic call: inactive; negative
Test System: AMES SALMONELLA TYPHIMURIUM, Strain/Indicator: TA1535, Metabolic Activation: S-9, Method: STANDARD PLATE
  mutagenic call: inactive; negative
Test System: AMES SALMONELLA TYPHIMURIUM, Strain/Indicator: TA1537, Metabolic Activation: HAMSTER, LIVER, S-9, AROCLOR 1254 (10%), Method: PREINCUBATION
  mutagenic call: active; positive
Test System: AMES SALMONELLA TYPHIMURIUM, Strain/Indicator: TA1537, Metabolic Activation: NONE, Method: PREINCUBATION
  mutagenic call: inactive; negative
Test System: AMES SALMONELLA TYPHIMURIUM, Strain/Indicator: TA1537, Metabolic Activation: RAT, LIVER, S-9, AROCLOR 1254 (10%), Method: PREINCUBATION
  mutagenic call: active; positive
Test System: AMES SALMONELLA TYPHIMURIUM, Strain/Indicator: TA1537, Metabolic Activation: RAT, LIVER, S-9, AROCLOR 1254, Method: STANDARD PLATE
  mutagenic call: inactive; negative
Test System: AMES SALMONELLA TYPHIMURIUM, Strain/Indicator: TA1537, Metabolic Activation: RAT, LIVER, S-9, PHENOBARBITAL AND BETA-NAPHTHOFLAVONE, Method: PREINCUBATION
  mutagenic call: active; positive
Test System: AMES SALMONELLA TYPHIMURIUM, Strain/Indicator: TA1537, Metabolic Activation: RAT, LIVER, S-9, PHENOBARBITAL AND BETA-NAPHTHOFLAVONE, Method: STANDARD PLATE
  mutagenic call: inactive; negative
Test System: AMES SALMONELLA TYPHIMURIUM, Strain/Indicator: TA1538, Metabolic Activation: NONE, Method: PREINCUBATION
  mutagenic call: inactive; negative
Test System: AMES SALMONELLA TYPHIMURIUM, Strain/Indicator: TA1538, Metabolic Activation: NONE, Method: STANDARD PLATE
  mutagenic call: inactive; negative
Test System: AMES SALMONELLA TYPHIMURIUM, Strain/Indicator: TA1538, Metabolic Activation: RAT, LIVER, S-9, AROCLOR 1254, Method: STANDARD PLATE
  mutagenic call: inactive; negative
Test System: AMES SALMONELLA TYPHIMURIUM, Strain/Indicator: TA1538, Metabolic Activation: RAT, LIVER, S-9, PHENOBARBITAL AND BETA-NAPHTHOFLAVONE, Method: PREINCUBATION
  mutagenic call: active; positive
Test System: AMES SALMONELLA TYPHIMURIUM, Strain/Indicator: TA1538, Metabolic Activation: RAT, LIVER, S-9, PHENOBARBITAL AND BETA-NAPHTHOFLAVONE, Method: STANDARD PLATE
  mutagenic call: active; positive
Test System: Mouse lymphoma, Strain/Indicator: L5178Y (tk+/tk-)/Trifluorothymidine, Metabolic Activation: None, Method: Microtiter
  mutagenic call: active; positive
